Measurements as given in patent US20250127913A1, “BIFUNCTIONAL FOLATE RECEPTOR BINDING COMPOUNDS” (LYCIA THERAPEUTICS, INC., priority 2021, published 2025).

Tests used:
[1] = test system: THP-1 cells overexpressing FOLR2; experiment: LYTAC mediated uptake of TNFα-Alexa647 in THP-1 WT / FOLR2 overexpressing cells (ΔMFI); type: cell-based; parameters: New-uptake 100 nM-% Example 46 / New-uptake 10 nm-% Example 46: unit not given here; conditions: for uptake of TNFα compared the no compound control (DMSO): 300 nM-0.137 nM
Experimental: Hetero-bifunctional small molecule LYTACs consisting of a TNFα binding moiety, linker and folate receptor binding moiety were tested to determine if folate receptor can internalize TNFα. THP-1 cells overexpressing FOLR2 were generated by stable transduction with lentivirus encoding FOLR2-IRES-GFP. THP-1 WT and FOLR2 overexpressing cells were maintained in RPMI (Gibco #61870143) with 10% v/v FBS (VWR #89510-188) with 2 mM L-alanyl-L-glutamine dipeptide, 100 units/ml penicillin and 100 μg/ml streptomycin (Gibco #27016021). Stable FOLR2 over-expression cells were mixed at a 50:50 ratio with WT THP-1 cells and seeded in a 96 well plate at 50,000 cells in 100 μl folate-free RPMI (Gibco […]) with 10% v/v FBS, 2 mM L-alanyl-L-glutamine dipeptide, 100 units/ml penicillin and 100 μg/ml streptomycin. In a separate 96 well plate, TNFα/folate hetero-bifunctional small molecules were mixed with unmodified TNFα conjugated with Alexa647 by non-specific lysine chemistry. Small molecule LYTACs at a concentration of 600 nM (2× final concentration) in 100 μl folate-free RPMI+10% FBS were incubated at room temperature for 30 mins. The immune complex was serially diluted 3-fold to produce a dose response range from 300 nM-0.137 nM (final concentration). The TNFα/LYTAC complex mixture was transferred to the plate containing a 50:50 mixture of THP1 WT and FOLR2 over expressing cells and incubated for 2 h at 37° C. with 5% C02. Uptake in WT and FOLR2 overexpressing cells was evaluated by flow cytometry by comparing the median fluorescence intensity of […] in the GFP negative (WT) and GFP positive (FOLR2) populations and was quantified as the difference between the mean fluorescence intensities in the APC channel for the GFP positive and GFP negative populations (ΔMFI).

[2] = target: TNFα (Homo sapiens (Human), UniProt P01375); experiment: TNFα binding assay (time-resolved FRET, biotinylated TNFα); conditions: 1 nM biotinylated TNFα, 80 nM probe, 16 hr incubation; read-out: TNF-HTRF-biotin
Chain of TNFα (P01375 77-233): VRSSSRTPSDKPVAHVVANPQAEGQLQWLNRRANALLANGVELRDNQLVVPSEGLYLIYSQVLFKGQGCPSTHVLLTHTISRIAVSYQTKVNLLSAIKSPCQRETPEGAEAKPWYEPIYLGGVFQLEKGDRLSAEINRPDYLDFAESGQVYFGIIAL
Summary of the method: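 Time-resolved FRET displacement of 80 nM acceptor probe from 1 nM biotinylated TNFα with 0.5 nM streptavidin-Tb in 20 mM Hepes pH 7.5, 10 mM MgCl2, 0.015% Tween-20, 0.05 mg/ml BSA, 2% DMSO. Read (ex 340, em 490/520 nm) after 16 hr. Duplicate dose responses normalized to DMSO and 100 nM reference inhibitor; IC50 by 4-parameter fit.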

[3] = target: T1, folate receptor beta (Homo sapiens (Human), UniProt P14207); experiment: Folate receptor binding assay (fluorescence polarization); conditions: 2.5 nM folate receptor beta, 2 nM FR-Cy probe, 2 hr incubation; read-out: FOLR2-FP
T1 sequence (P14207 17-255): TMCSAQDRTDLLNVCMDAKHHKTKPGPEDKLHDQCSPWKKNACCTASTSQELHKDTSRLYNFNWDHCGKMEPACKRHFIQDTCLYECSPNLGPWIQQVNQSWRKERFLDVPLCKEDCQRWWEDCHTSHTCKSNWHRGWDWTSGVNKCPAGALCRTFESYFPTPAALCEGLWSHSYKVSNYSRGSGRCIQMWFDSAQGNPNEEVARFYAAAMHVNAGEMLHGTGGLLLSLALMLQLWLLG
Summary of the method: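 Fluorescence polarization competition with 2 nM folate–Cy5 probe and 2.5 nM receptor in 20 mM Hepes pH 7.5, 250 mM NaCl, Tween-20, 1% DMSO; 3-fold dilutions, 2 h incubation, ex 620/em 688 nm. Duplicates normalized to DMSO (high) and 1 μM folic acid (low); IC50 from 4-parameter fit.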

[4] = target: T1, folate receptor beta; experiment: Folate receptor SPR assay (biotinylated folate receptor beta on streptavidin chip); type: binding; conditions: for Rmax: biotinylated folate receptor beta on streptavidin chip; for kd / Kd / kon: multi-cycle kinetics, 25° C., 1:1 model; for Kd: read-out: FOLR2Biotin - SPR Kd; for kon: pH 7.5, read-out: ka
Summary of the method: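 Biotinylated receptor captured on a streptavidin SPR chip; multi-cycle kinetics at 25 °C with 8 compound concentrations (2-fold dilutions) in HEPES pH 7.5, 150 mM NaCl, 0.05% Tween 20, 2% DMSO. Association 120 s, dissociation 600 s; binding parameters from 1:1 model fit.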

[5] = target: TNFα and streptavidin immobilized FOL2R (Homo sapiens (Human), UniProt P01375+P14207); experiment: Ternary complex SPR assay; type: binding; conditions: 10 nM compound, max response normalized to expected response; for TC 150 nM- tagless TNF Normalized: 150 nM untagged TNF; for TC 300 nM- tagless TNF Normalized: 300 nM untagged TNF
Chain of TNFα and streptavidin immobilized FOL2R (P14207 17-230): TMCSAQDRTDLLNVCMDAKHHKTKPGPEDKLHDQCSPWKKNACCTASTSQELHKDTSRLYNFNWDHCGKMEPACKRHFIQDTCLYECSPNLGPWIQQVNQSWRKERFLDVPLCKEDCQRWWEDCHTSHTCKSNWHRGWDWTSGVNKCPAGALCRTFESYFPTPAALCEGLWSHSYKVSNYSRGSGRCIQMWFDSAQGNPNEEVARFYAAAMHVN
Chain of TNFα and streptavidin immobilized FOL2R (P01375 77-233): as the sequence (P01375 77-233) above
Summary of the method: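 Biotinylated folate receptor beta captured at ~1800 RU on a streptavidin chip; untagged TNF preincubated 6 hr at 25° C with 10 nM compound in HEPES pH 7.5, 150 mM NaCl, 0.05% Tween 20, 2% DMSO, then injected (110 s association, 600 s dissociation). Maximum response normalized to maximum expected response per compound.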

With `Cc1nc2cc(F)c(-c3cnc(N4CCN(C(=O)COCCn5cc(CN(CCO)CCOCCOCCOCCNC(=O)CC[C@H](NC(=O)c6ccc(NCc7cnc8nc(N)nc(O)c8n7)cc6)c6nn[nH]n6)nn5)CC4)nc3)nc2c(N[C@H](C)c2cc(C#N)ccc2F)c1Cl` [Compound I-80, 4-(((2-amino-4-hydroxypteridin-6-yl)methyl)amino)-N—((S)-3-((1-(2-(2-(4-(5-(7-chloro-8-(((R)-1-(5-cyano-2-fluorophenyl)ethyl)amino)-3-fluoro-6-methyl-1,5-naphthyridin-2-yl)pyrimidin-2-yl)piperazin-1-yl)-2-oxoethoxy)ethyl)-1H-1,2,3-triazol-4-yl)methyl)-1-hydroxy-16-oxo-19-(2H-tetrazol-5-yl)-6,9,12-trioxa-3,15-diazanonadecan-19-yl)benzamide] the “New-uptake 10 nm-% Example 46” value ([1]; 10 nM compound, relative to Example 46 as printed (I-92 = 1.00)) was 0.89, the “New-uptake 100 nM-% Example 46” value ([1]; 100 nM compound, relative to Example 46 as printed (I-92 = 1.00)) was 1.02 and the IC50 [2] was 36 nM. The IC50 [3] was 12 nM.

`Cc1nc2cc(F)c(-c3cnc(N4CCN(C(=O)COCCOCCOCCOCCOCCOCCn5cc(CC[C@H](NC(=O)c6ccc(OCc7ccc8nc(N)nc(O)c8c7)cc6)C(=O)O)nn5)CC4)nc3)nc2c(N[C@H](C)c2cc(C#N)ccc2F)c1Cl` [Compound I-87, (S)-2-(4-((2-amino-4-hydroxyquinazolin-6-yl)methoxy)benzamido)-4-(1-(20-(4-(5-(7-chloro-8-(((R)-1-(5-cyano-2-fluorophenyl)ethyl)amino)-3-fluoro-6-methyl-1,5-naphthyridin-2-yl)pyrimidin-2-yl)piperazin-1-yl)-20-oxo-3,6,9,12,15,18-hexaoxaicosyl)-1H-1,2,3-triazol-4-yl)butanoic acid] was tested, and the “uptake of TNFα compared the no compound control (DMSO)” value ([1]; 2 h) was “dose-dependent uptake of TNFα”, the EC50 ([1]; Homo sapiens, ΔMFI FOLR2 overexpressing vs WT THP-1 cells, 2 h) was 15.3 nM and the IC50 [2] was 22 nM. It also gave an IC50 [3] of 8 nM, an Rmax [4] of 18.7 RU and a kd [4] of 0.000692 s⁻¹. The Kd [4] was 0.035 nM, the kon [4] was 1.97e+07 M⁻¹ s⁻¹ and the “TC 150 nM- tagless TNF Normalized” value [5] was 25.7%. For the same compound, the “TC 300 nM- tagless TNF Normalized” value [5] was 32.8%.

For `Cc1nc2cc(F)c(-c3cnc(N4CCN(C(=O)COCCOCCOCCOCCOCCOCCn5cc(CC[C@H](NC(=O)c6ccc(NCc7cnc8nc(N)nc(O)c8n7)cc6)C(=O)O)nn5)CC4)nc3)nc2c(N[C@H](C)c2cc(C#N)ccc2F)c1Cl` [Compound I-92], the “uptake of TNFα compared the no compound control (DMSO)” value ([1]; 2 h) was “dose-dependent uptake of TNFα”, the IC50 [2] was 20 nM and the IC50 [3] was 7.6 nM. It also gave an Rmax [4] of 17.1 RU, a kd [4] of 8.7e-05 s⁻¹ and a Kd [4] of 0.00867 nM. For the same compound, the kon [4] was 1e+07 M⁻¹ s⁻¹, the “TC 60 nM taggless TNF normalized” value ([5]; 60 nM untagged TNF) was 15.3% and the “TC 150 nM- tagless TNF Normalized” value [5] was 16.9%. For the same compound, the “TC 300 nM- tagless TNF Normalized” value [5] was 18.7%.
